SMILES strings stand for the structures. pKi: −log10 of the molar value. Read-outs that look alike come from different tables or passages of the source.

Results on 15 compounds are retold here after patent US20040248887A1, “Inhibitors of cathepsin S” (IRM LLC, priority 2003, published 2004).

Holding throughout (type): biochemical
The target in one test is Cathepsin B (Homo sapiens, UniProt P07858). The test is described as follows: Cathepsin B inhibition, fluorogenic peptide substrate kinetic assay. Conditions: Table III; Cathepsin B inhibition constant, pH5.5; read-out: Ki Cat. B. As for the experimental part: The optimal substrate for cathepsin B, acetyl-histidine-proline-valine-lysine-amino carbamoyl coumarin, was identified from screening a combinatorial library of fluorogenic peptide substrates (Harris, J. L., B. J. Backes, et al., Proc Natl Acad Sci USA 2000, 97(14), 7754-9). Kinetic measurements are performed in a total reaction volume of 30 μl in 384-well microtiter plates. Cathepsin B, at a final concentration of 1.5 nM (active site), is incubated with the compounds at twelve varying concentrations in a buffer containing 100 mM NaAc (pH5.5), 1 mM EDTA, 100 mM NaCl, 0.01% Brij-35 for 20 minutes at room temperature. Control reactions in the absence of inhibitor are performed in replicates of 24. The reactions are initiated by adding the substrate, acetyl-histidine-proline-valine-lysine-amino carbamoyl coumarin, to a final concentration of 10 μM. The rate of substrate hydrolysis is measured by monitoring the increase in fluorescence at an excitation wavelength of 380 nm and an emission wavelength of 450 nm that results from cleavage of the aniline bond in the substrate by the enzyme. The apparent inhibition constants for the compounds are determined from the enzyme progress curves (Kuzmie, P., K. C. Elrod, et al., Anal Biochem 2000, 286(1), 45-50) and are then used to calculate the inhibition constants for competitive inhibitors.

In another test the target is T1, Cathepsin K (Homo sapiens, UniProt P43235).
T1 sequence (P43235 115-329): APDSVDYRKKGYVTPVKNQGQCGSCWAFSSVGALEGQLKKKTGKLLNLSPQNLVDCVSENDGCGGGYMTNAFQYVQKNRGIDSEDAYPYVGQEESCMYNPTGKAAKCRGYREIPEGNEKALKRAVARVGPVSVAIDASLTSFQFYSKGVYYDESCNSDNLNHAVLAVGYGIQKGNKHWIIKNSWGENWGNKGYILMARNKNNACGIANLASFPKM
The test can be described thus: Cathepsin K inhibition, fluorogenic peptide substrate kinetic assay. Conditions: Table III; Cathepsin K inhibition constant, pH5.5; read-out: Ki Cat. K. As for the experimental part:
(§1) The optimal substrate for cathepsin K, acetyl-lysine-histidine-proline-lysine-amino carbamoyl coumarin, was identified from screening a combinatorial library of fluorogenic peptide substrates (Harris, J. L., B. J. Backes, et al., Proc Natl Acad Sci U S A 2000, 97(14), 7754-9). Kinetic measurements are performed in a total reaction volume of 30 μl in 384-well microtiter plates. […] The reactions are initiated by adding the substrate, acetyl-lysine-histidine-proline-lysine-amino carbamoyl coumarin, to a final concentration of 40 μM. The rate of substrate hydrolysis is measured by monitoring the increase in fluorescence at an excitation wavelength of 380 nm and an emission wavelength of 450 nm that results from cleavage of the aniline bond in the substrate by the enzyme. The apparent inhibition constants for the compounds are determined from the enzyme progress curves (Kuzmic, P., K. C. Elrod, et al., Anal Biochem 2000, 286(1), 45-50) and are then used to calculate the inhibition constants for competitive inhibitors.

A further test has as its target Cathepsin S (Homo sapiens, UniProt P25774). The test can be described thus: Cathepsin S inhibition, fluorogenic peptide substrate kinetic assay. Particulars: Cathepsin S inhibition constant, pH5.5, read-out: Ki Cat. S. In short, it runs like this:
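Reactions were started with 50 μM (final) acetyl-His-Pro-Val-Lys-aminocarbamoylcoumarin, and hydrolysis was followed by fluorescence (ex 380/em 450 nm). Apparent inhibition constants from enzyme progress curves were converted to Ki for competitive inhibitors using substrate concentration and Km.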

The target of another test is Cathepsin L (Homo sapiens, UniProt P07711). The test can be described thus: Cathepsin L inhibition, fluorogenic peptide substrate kinetic assay. Conditions: Table III; Cathepsin L inhibition constant, pH5.5; read-out: Ki Cat. L. As for the experimental part:
as §1, with “Kinetic” for “The optimal substrate for cathepsin K, acetyl-lysine-histidine-proline-lysine-amino carbamoyl coumarin, was identified from screening a combinatorial library of fluorogenic peptide substrates (Harris, J. L., B. J. Backes, et al., Proc Natl Acad Sci U S A 2000, 97(14), 7754-9). Kinetic”, “acetyl-histidine-lysine-phenylalanine-lysine-amino” for “acetyl-lysine-histidine-proline-lysine-amino”, “20” for “40”

Chain of Cathepsin S (P25774 115-331, species assumed): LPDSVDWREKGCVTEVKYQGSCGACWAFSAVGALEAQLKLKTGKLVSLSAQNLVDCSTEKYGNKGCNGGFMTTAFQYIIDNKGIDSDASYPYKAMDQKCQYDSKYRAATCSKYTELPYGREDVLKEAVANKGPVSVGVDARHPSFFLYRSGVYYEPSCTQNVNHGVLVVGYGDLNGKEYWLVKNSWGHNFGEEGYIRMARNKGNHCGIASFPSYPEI
Chain of Cathepsin L (P07711 114-333, species assumed): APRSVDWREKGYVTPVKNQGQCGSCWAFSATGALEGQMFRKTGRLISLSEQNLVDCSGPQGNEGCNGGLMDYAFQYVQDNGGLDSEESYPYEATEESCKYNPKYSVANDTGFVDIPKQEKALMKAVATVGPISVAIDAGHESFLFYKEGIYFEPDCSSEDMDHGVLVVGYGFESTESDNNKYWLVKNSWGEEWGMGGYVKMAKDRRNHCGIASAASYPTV

One may read the pKi as the Ki on a negative log10 scale, so that one unit is a factor of ten. As to `COc1ccc(NCC(C)NC(=O)[C@H](CC(C)C)NC(=O)c2cccc(C)c2)cc1` (mixture of isomers) [Compound 21, N-{1-(S)-[2-(4-Methoxy-phenylamino)-1-methyl-ethylcarbamoyl]-3-methyl-butyl}-3-methyl-benzamide], at Cathepsin B, the pKi is less than 5.00.
`Cc1cccc(C(=O)N[C@@H](CC2CCCC2)C(=O)NCCN2CCc3cc(F)ccc32)c1` [Compound 201, (S)-N-{2-Cyclopentyl-1-[2-(5-fluoro-2,3-dihydro-indol-1-yl)-ethylcarbamoyl]-ethyl}-3-methyl-benzamide]: the pKi on Cathepsin K is more than 5.00; at Cathepsin S (Table II), more than 7.00; on Cathepsin S (Table III), more than 7.00; on Cathepsin B, less than 5.00; on Cathepsin L it was more than 6.00.
Turning to `COc1cccc(C(=O)N[C@@H](CCC2CCCCC2)C(=O)N[C@H](CN2CCc3cc(F)ccc32)c2ccccc2)c1` [Compound 51, (S,S)-N-{3-Cyclohexyl-1-[2-(5-fluoro-2,3-dihydro-indol-1-yl)-1-phenyl-ethylcarbamoyl]-propyl}-3-methoxy-benzamide], the pKi at Cathepsin B is less than 5.00.
Consider `C[C@@H](CNc1ccc(OC(F)(F)F)cc1)NC(=O)[C@H](CC1CCCCC1)NS(=O)(=O)c1cccc(Cl)c1` [Compound 181, (S,S)-2-(3-Chloro-benzenesulfonylamino)-3-cyclohexyl-N-[1-methyl-2-(4-trifluoromethoxy-phenylamino)-ethyl]-propionamide], for which the pKi at Cathepsin K is less than 5.00; at Cathepsin S (Table II), more than 7.00; at Cathepsin S (Table III) it was more than 7.00; at Cathepsin B it was less than 5.00; at Cathepsin L, more than 5.00.
Turning to `O=C(N[C@H](C(=O)N[C@@H](COCc1ccccc1)CN1CCc2cc(F)ccc21)c1ccc(Cl)cc1Cl)c1ccc(F)c(F)c1` [Compound 211, N-(S)-((3-(benzyloxy)-1-(5-fluoroindolin-1-yl)propan-2-(R)-ylcarbamoyl)(2,4-dichlorophenyl)methyl)-3,4-difluorobenzamide], the pKi on Cathepsin K was less than 5.00; at Cathepsin S (Table II), more than 7.00; at Cathepsin S (Table III), more than 7.00; at Cathepsin B, less than 5.00; at Cathepsin L, more than 5.00.
Take `Cc1cccc(S(=O)(=O)N[C@@H](CC2CCCCC2)C(=O)N[C@@H](C)CN2CCc3cc(F)ccc32)c1` [Compound 251, (S,S)-3-Cyclohexyl-N-[2-(5-fluoro-2,3-dihydro-indol-1-yl)-1-methyl-ethyl]-2-(toluene-3-sulfonylamino)-propionamide]: the pKi was less than 5.00 on Cathepsin K; more than 7.00 at Cathepsin S (Table II); more than 7.00 at Cathepsin S (Table III); less than 5.00 on Cathepsin B; more than 5.00 at Cathepsin L.
Regarding `COC(=O)c1ccc(COC[C@@H](CN2CCc3cc(F)ccc32)NC(=O)[C@H](CCC2CCCCC2)NC(=O)c2cccc(OC)c2)cc1` [Compound 171, 4-{2-(R)-[4-Cyclohexyl-2-(S)-(3-methoxy-benzoylamino)-butyrylamino]-3-(5-fluoro-2,3-dihydro-indol-1-yl)-propoxymethyl}-benzoic acid methyl ester], the pKi on Cathepsin K was less than 5.00; on Cathepsin S (Table II), more than 7.00; at Cathepsin S (Table III), more than 7.00; at Cathepsin B, less than 5.00; at Cathepsin L, more than 5.00.
As to `CC(C(=O)N[C@@H](CC1CCCCC1)C(=O)NCCN1CCc2cc(F)ccc21)c1ccc(O)cc1` (stereo partly drawn) [Compound 101, N-{2-cyclohexyl-1-(S)-[2-(5-fluoro-2,3-dihydro-indol-1-yl)-ethylcarbamoyl]-ethyl}-2-(4-hydroxy-phenyl)-propionamide], the pKi was less than 5.00 on Cathepsin K; more than 7.00 on Cathepsin S (Table II); more than 7.00 at Cathepsin S (Table III); less than 5.00 at Cathepsin B; more than 5.00 at Cathepsin L.
For the compound `Cc1nn(C)c(Cl)c1S(=O)(=O)N[C@@H](CC1CCCCC1)C(=O)NCCN1CCc2cc(F)ccc21` [Compound 241, (S)-2-(5-Chloro-1,3-dimethyl-1H-pyrazole-4-sulfonylamino)-3-cyclohexyl-N-[2-(5-fluoro-2,3-dihydro-indol-1-yl)-ethyl]-propionamide], the pKi at Cathepsin K was less than 5.00; at Cathepsin S (Table II), more than 6.00; on Cathepsin S (Table III), more than 6.00; on Cathepsin B it was less than 5.00; at Cathepsin L, more than 5.00.
Consider `Cc1noc(C)c1NC(=O)N[C@@H](CC1CCCCC1)C(=O)NCCN1CCc2cc(F)ccc21` [Compound 221], for which the pKi at Cathepsin K is less than 5.00; at Cathepsin S (Table II), more than 6.00; at Cathepsin S (Table III) it was more than 6.00; on Cathepsin B it was less than 5.00; on Cathepsin L, less than 5.00.
Take `Cc1cccc(C(=O)N[C@@H](CC2CCCCC2)C(=O)NCCN2CCc3cc(F)ccc32)c1` [Compound 71, N—(S)-{2-cyclohexyl-1-[2-(5-fluoro-2,3-dihydro-indol-1-yl)-ethylcarbamoyl]-ethyl}-3-methyl-benzamide]: the pKi was more than 5.00 on Cathepsin K; more than 7.00 at Cathepsin S (Table II); more than 7.00 at Cathepsin S (Table III); less than 5.00 on Cathepsin B; more than 7.00 at Cathepsin L.
As to `C[C@@H](CNc1ccc(OC(F)(F)F)cc1)NC(=O)[C@H](CC1CCCC1)NC(=O)O[C@@H]1CCOC1` [Compound 191, (S,S)-{2-Cyclopentyl-1-[1-methyl-2-(4-trifluoromethoxy-phenylamino)-ethylcarbamoyl]-ethyl}-carbamic acid tetrahydrofuran-3-(R)-yl ester], the pKi is more than 5.00 on Cathepsin K; more than 7.00 at Cathepsin S (Table II); more than 7.00 at Cathepsin S (Table III); less than 5.00 at Cathepsin B; less than 5.00 on Cathepsin L.
Take `COc1cccc(C(=O)N[C@@H](CC2CCCCC2)C(=O)N[C@@H](CN2CCOCC2)CN2CCc3cc(F)ccc32)c1` [Compound 151, N-{2-Cyclohexyl-1-(S)-[2-(5-fluoro-2,3-dihydro-indol-1-yl)-1-(S)-morpholin-4-ylmethyl-ethylcarbamoyl]-ethyl}-3-methoxy-benzamide]: the pKi was more than 5.00 at Cathepsin K; more than 7.00 on Cathepsin S (Table II); more than 7.00 at Cathepsin S (Table III); less than 5.00 at Cathepsin B; more than 7.00 at Cathepsin L.
On to `C[C@@H](CNc1ccccc1C(N)=O)NC(=O)[C@H](CC1CCCCC1)NC(=O)c1ccc(-c2cccc(F)c2)o1` [Compound 121, 5-(3-Fluoro-phenyl)-furan-2-carboxylic acid {1-(S)-[2-(2-carbamoyl-phenylamino)-1-(S)-methyl-ethylcarbamoyl]-2-cyclohexyl-ethyl}-amide], for which the pKi was more than 5.00 on Cathepsin K; more than 6.00 at Cathepsin S (Table II); more than 6.00 at Cathepsin S (Table III); more than 5.00 on Cathepsin B; more than 5.00 at Cathepsin L.
Regarding `O=C(NC(CCC1CCCCC1)C(=O)NC(COCc1ccccc1)CN1CCc2cc(F)ccc21)c1cc2ccccc2[nH]1` (mixture of isomers) [Compound 41, 1H-Indole-2-carboxylic acid {(1S)-[2-benzyloxy-(1R)-(5-fluoro-2,3-dihydro-indol-1-ylmethyl)-ethylcarbamoyl]-3-cyclohexyl-propyl}-amide], the negative logarithm of the Ki (pKi) on Cathepsin K is less than 5.00; on Cathepsin S (Table II), more than 7.00; on Cathepsin S (Table III), more than 7.00; on Cathepsin B, more than 6.00; on Cathepsin L, more than 6.00.
